Experimental data as given in paper PMC12737022, “Evaluations of Sex Differences in Dosimetry in Rats Following Perfluorohexanesulfonamide (PFHxSA) Oral Exposure” (Toxics, 2025).
In brackets after ≈: the same amount, converted by molar mass. Several values for one entry are separate records, joined by “and”; a condition that tells them apart may be missing. Identical values can stand only once.

Tests used:
[1] = set-up: method as in PMID 31078680; settings: across both sexes; cited from earlier work
[2] = Solubility and stability of PFHxSA corn oil dosing solutions; type: physicochemical; settings: for Replicate percent recoveries, Day 5 / Replicate percent recoveries, Day 7 / Replicate percent recoveries, Day 14: relative to Day 0
Description: The stability of PFHxSA corn oil dosing solutions was also evaluated up to 14 days. PFHxSA solutions were prepared using the same lot number of the chemical as was used in Mutlu et al.. Solutions were prepared under an inert atmosphere at a 20,000 µg/mL (20 mg/mL) high-dose solution and a 2 µg/mL ([…]) low-dose solution to mimic the range of concentrations of the dosing formulations used for the in vivo study. Each batch included an MB and an LCS prepared from blank corn oil as QC. The solutions were split into two aliquots each. One aliquot was stored at 4 °C; the other aliquot was stored at room temperature, with both protected from light. The stability samples were analyzed in triplicate on Days 0, 5, 7, and 14 using the same extraction method and LC/MS/MS conditions outlined in SI Texts S2 and S3, respectively. Stability was assessed by using mean peak areas to calculate the percent recovery for each day of analysis relative to Day 0. Information on percent recovery calculation and additional experimental details concerning the stability study may be found in SI Text S2.
Text S1 Solvents and Additives for Analytical Chemistry
Solvents used for sample preparation and mobile phases include methanol (MeOH), water (H2O), and acetonitrile (ACN), which were LC/MS-grade and purchased from Honeywell Burdick & Jackson (Charlotte, NC, USA). Ammonium formate (BioUltra purity) and ammonium acetate (99% pure) were used as mobile phase additives and obtained from Millipore Sigma (St. Louis, MO, USA). Formic acid (FA; 97.5% pure) was also used as an additive; it was purchased from Honeywell Fluka. Detailed information for chemicals used for each analysis may be found in Table S1.
Text S2 Dosing-Solution Determination and Stability Assessment
Dosing solutions were extracted by liquid–liquid extraction using 50 uL aliquots of the dosing solutions and 950 uL of 0.1M formic acid in acetonitrile, vortexing the mixture at 2000 rpm, and centrifuging at 5400 × g for 10 minutes. The supernatants were drawn off and added to Waters Oasis Prime HLB 3cc 60mg (Waters, Milford, MA, USA) solid phase extraction (SPE) cartridges. Supernatants were allowed to elute through the cartridge via gravity. Finally, 100 uL of eluent was diluted using 100 uL of 1% formic acid in water. Extracts were further diluted with the extracted method blank (corn oil) to bring the concentrations to within the calibration range. Sample extracts were analyzed using the same LC/MS/MS method outlined for PFHxSA plasma and liver in Text S4. Samples were quantitated against a matrix-matched calibration curve containing a minimum of 5 points spanning 50-500 ng/mL in extract. […]
verification (CCV) sample and laboratory control sample (LCS) were injected at the start and end of each analytical batch to confirm the validity of the calibration curve and sample quantitation. Acceptance criteria for the CCV and LCS were readback concentrations ± 30% of nominal concentration. The method blank acceptance criterion was a readback concentration of PFHxSA < 0.5x the limit of quantitation (LOQ) of the method. The LOQ was 50 ng/mL in the extract. Samples were injected in sequential order (e.g., r01, r02, r03, …, etc.); no duplicate injections of samples were performed.
Assessment of the stability of PFHxSA in corn oil was conducted using the same extraction method as for dosing solutions. Analysis of PFHxSA in corn oil was conducted using the same LC/MS/MS conditions as PFHxSA dosimetry in plasma and liver (Text S4). The average ratio of PFHxSA peak area to PFOSA internal standard peak area for three replicate injections was divided by the average ratio for Day 0 to derive the percentage of recovery for a given day. No calibration curve was generated for the Stability Assessment. For quality control, the extraction blank needed to have a PFHxSA signal that was ≤ 10% the peak area of PFHxSA on Day 0; the daily LCS was acceptable with a PFHxSA/PFOSA area ratio within 30% of the Day 0 LCS. […]

| Compound | Liver partitioning summary values [1] | Stability of corn oil solutions ([2]; 2 µg/mL to 20,000 µg/mL, within ±30% of the initial value, up to 14 days, room and refrigerated (4 °C) temperatures) | MeanD14 (mean of percent recoveries for Day 14 replicates) ([2]; corn oil 2 µg/mL, 4 °C) | Replicate percent recoveries, Day 5 ([2]; corn oil 2 µg/mL, 4 °C) | Replicate percent recoveries, Day 7 ([2]; corn oil 2 µg/mL, 4 °C) | Replicate percent recoveries, Day 14 ([2]; corn oil 2 µg/mL, 4 °C) | MeanD14 (mean of percent recoveries for Day 14 replicates) ([2]; corn oil 2 µg/mL, RT) | Replicate percent recoveries, Day 5 ([2]; corn oil 2 µg/mL, RT) | Replicate percent recoveries, Day 7 ([2]; corn oil 2 µg/mL, RT) | Replicate percent recoveries, Day 14 ([2]; corn oil 2 µg/mL, RT) | MeanD14 (mean of percent recoveries for Day 14 replicates) ([2]; corn oil 20,000 µg/mL, 4 °C) | Replicate percent recoveries, Day 5 ([2]; corn oil 20,000 µg/mL, 4 °C) | Replicate percent recoveries, Day 7 ([2]; corn oil 20,000 µg/mL, 4 °C) | Replicate percent recoveries, Day 14 ([2]; corn oil 20,000 µg/mL, 4 °C) | MeanD14 (mean of percent recoveries for Day 14 replicates) ([2]; corn oil 20,000 µg/mL, RT) | Replicate percent recoveries, Day 5 ([2]; corn oil 20,000 µg/mL, RT) | Replicate percent recoveries, Day 7 ([2]; corn oil 20,000 µg/mL, RT) | Replicate percent recoveries, Day 14 ([2]; corn oil 20,000 µg/mL, RT) | solubility ([2]; corn oil, oil or lipid) |
| --- | --- | --- | --- | --- | --- | --- | --- | --- | --- | --- | --- | --- | --- | --- | --- | --- | --- | --- | --- |
| O=S(=O)(O)C(F)(F)C(F)(F)C(F)(F)C(F)(F)C(F)(F)C(F)(F)F [PFHxS, perfluorohexane sulfonic acid] | 0.16–0.44 | – | – | – | – | – | – | – | – | – | – | – | – | – | – | – | – | – | – |
| NS(=O)(=O)C(F)(F)C(F)(F)C(F)(F)C(F)(F)C(F)(F)C(F)(F)F [PFHxSA, Perfluorohexanesulfonamide] | – | stable | 79.3% | 90.8% and 94.3% and 97.9% | 78.3% and 79.5% and 79.3% | 77.3% and 77.6% and 83.0% | 97.3% | 97.4% and 96.8% and 96.1% | 81.3% and 85.5% and 80.6% | 97.0% and 93.3% and 102% | 128% | 110% (2×) and 119% | 119% and 118% and 116% | 130% and 126% and 128% | 88.6% | 97.3% and 103% and 98.1% | 90.1% and 94.3% and 88.4% | 88.0% and 87.2% and 90.5% | 20 mg/mL (≈ 50.1 mM) |
